Source: patent US20160287601A1, “ENHANCED TREATMENT REGIMENS USING PI3K INHIBITORS” (MILLENNIUM PHARMACEUTICALS, INC., priority 2013, published 2016)

Tests used:
[1] = tested on: T47D (PIK3CA mutant, ER/PR+) human breast cancer xenografts; experiment: Antitumor activity alone and in combination with fulvestrant in T47-D xenografts; type: in vivo, NOD-SCID mice; details: Compound A 70 mg/kg PO QD x 3/wk x 3, Fulvestrant 100 mg/kg SC QW x 3; for TGI (tumor growth inhibition): Day 21 post treatment initiation; for ΔAUC (change in area under the tumor volume-versus-time curves): versus vehicle, 21 day treatment
Text: The control used in this study was 100% PEG400+0.9% Saline. Fulvestrant was formulated in 0.9% saline.
Prior to injection, the cells were detached with Trypsin (Invitrogen), washed twice with phosphate buffered saline (PBS), and resuspended in RPMI (Roswell Park Memorial Institute) media (Invitrogen,) without supplements. Cells were resuspended to a final concentration of 10.0×10^7 cells/ml in DPBS and mixed with 50% Matrigel (BD Biosciences) at 1 to 1 volume. T47-D cells (10.0×10^6 cells/animal in 02-mL injection volume) were implanted S.C. into the right flank of NOD-SCID mice (Harlain Laboratories).
Four-six week old female NOD-SCID mice were inoculated SC in flank (cell suspension in DPBS and 50% Matrigel) with 10.0×10^6 T47-D cells. Tumor growth was monitored with vernier calipers. The mean TV (MTV) was calculated using the formula V=W2×L/2.
The percentage of tumor growth inhibition (TGI) and percent body weight (BW) change were determined on Day 21 and provided in Table 6. Statistical comparisons of tumor growth between the treatment and vehicle groups were conducted using a linear mixed effects regression analysis on the change in area under the tumor volume (TV)-versus—time curves (ΔAUC) values. All p values less than 0.05 were considered significant.
A combination score calculation was used to address the question of whether the effects of the combination treatments were synergistic, additive, subadditive, or antagonistic relative to the individual treatments. The effect was considered synergistic if the synergy score was less than 0, and additive if the synergy score wasn't statistically different from 0.

[2] = tested on: MDA-MB-361 human breast cancer xenografts; experiment: Antitumor activity in MDA-MB-361 human breast cancer xenografts, various doses and schedules; type: in vivo, female athymic nude mice; details: PO
Method: Objectives of this study: to determine the in vivo antitumor activity of compound A at various doses and schedules in the MDA-MB-361 human breast cancer xenografts after oral (PO) administration in female nude mice.
Compound A was prepared according to methods disclosed in WO 2011/022439 and WO 2013/071272 and stored at approximately 25° C., shielded from light. The control used in this study was 100% PEG400.
Low passage MDA-MB-361 cells were grown in Dulbecco's Modified Eagle's Medium (DMEM) media supplemented with 20% fetal bovine serum (FBS) and 1× penicillin/streptomycin (Invitrogen [Carlsbad, Calif., USA]) until approximately 80% confluency was reached. […]
Four-five week old female athymic nude mice were inoculated SC in flank (cell suspension in serum free DMEM and 50% Matrigel) with 10.0×10^6 MDA-MB-361 cells. Tumor growth was monitored with vernier calipers. The mean TV (MTV) was calculated using the formula V=W^2×L/2.
When tumors reached a mean tumor volume (MTV) of approximately 280 mm^3, mice (n=5/group) were treated with vehicle (PEG400) or compound A (60, 70, 140, or 210 mg/kg) administered concurrently via oral gavage over a 28 day treatment period on the schedules indicated below in Table 2. The percentage of tumor growth inhibition (TGI) and percent body weight (BW) change were determined on Day 28. […]

[3] = Phase 1 clinical study, safety and tolerability (MTD, AEs grade 3 or higher) in patients with advanced solid malignancies; type: in vivo
Text: A phase 1 clinical study was initiated to evaluate the safety, tolerability, PK, pharmacodynamics; to determine the maximum tolerated dose (MTD) in each of 3 schedules described below; and to evaluate antitumor activity in patients with advanced solid malignancies.
Inclusion Criteria • Subjects have had their PIK3CA gene mutation status assessed prior to enrolling into the study • Subjects must have documented disease progression prior to enrolling into the study • locally advanced or metastatic solid tumors with the exception of primary brain tumor, and have failed or are not eligible for standard of care therapy. • Age ≧18 years, including males and females; • ECOG performance status (PS) 0-1; • Adequate organ function; • Male subjects must be surgically sterile or must agree to use physician-approved contraception during the study and for 30 days following the last study drug administration; • Ability to swallow oral medications; • Ability to understand and willingness to sign informed consent prior to initiation of any study procedures; • For women of child-bearing potential, negative serum pregnancy test within 14 days prior to the first study drug administration and use of physician-approved method of birth control from 30 days prior to the first study drug administration to 30 days following the last study drug administration
35 patients were enrolled into the dose escalation phase of the study, which is designed to determine the MTD of compound A when given orally on continuous (daily) or intermittent schedules. The MTD for the QD dosing schedule was determined to be 100 mg.
Other than MTD, the other primary outcome measures is the tolerability profile of compound A or the number of adverse events (AE) from the first dose of study drug through 30 days after the last dose of study drug. Plasma levels of compound A is one of the secondary outcome measures.

| SMILES | TGI (tumor growth inhibition) [1] | ΔAUC (change in area under the tumor volume-versus-time curves) [1] | efficacy in reducing tumor size, intermittent regimen versus daily administration ([2]; 28 day treatment, total amount administered comparable in daily and intermittent schedules) | relationship between efficacy (tumor growth inhibition, TGI) and exposure (AUC) between dosing schedules ([2]; single agent, FIG. 3) | maximum tolerated dose (MTD) ([3]; QD (continuous daily) oral dosing schedule) | Abdominal pain, AEs grade 3 or higher ([3]; both, human, in vivo) | Anaemia, AEs grade 3 or higher ([3]; both, human, in vivo) | Chills, AEs grade 3 or higher ([3]; both, human, in vivo) | Decreased appetite, AEs grade 3 or higher ([3]; both, human, in vivo) | Diarrhoea, AEs grade 3 or higher ([3]; both, human, in vivo) | Drug-induced liver injury, AEs grade 3 or higher ([3]; both, human, in vivo) | Hyperglycaemia, AEs grade 3 or higher ([3]; both, human, in vivo) | Nausea, AEs grade 3 or higher ([3]; both, human, in vivo) | Oxygen saturation, AEs grade 3 or higher ([3]; both, human, in vivo) | Transaminases incr'd, AEs grade 3 or higher ([3]; both, human, in vivo) | TGI (tumor growth inhibition) ([1]; listed as compound A) |
| --- | --- | --- | --- | --- | --- | --- | --- | --- | --- | --- | --- | --- | --- | --- | --- | --- |
| C[C@]12CC[C@@H]3c4ccc(O)cc4C[C@@H](CCCCCCCCC[S+]([O-])CCCC(F)(F)C(F)(F)F)[C@H]3[C@@H]1CC[C@@H]2O (stereo partly drawn) [Fulvestrant, (7α,17β)-7-{9-[(4,4,5,5,5-pentafluoropentyl)sulfinyl]nonyl}estra-1,3,5(10)-triene-3,17-diol, reference compound] | 66.70% | 108.4 | – | – | – | – | – | – | – | – | – | – | – | – | – | – |
| Nc1nc2cc(-c3ccc4ncc(C(=O)N5CCOCC5)n4c3)ccc2o1 [Compound A, (6-(2-aminobenzo[d]oxazol-5-yl)imidazo[1,2-a]pyridin-3-yl)(morpholino)methanone] | 52.60% | 61.2 | as efficacious in reducing tumor size as daily administration | AUC-driven | 100 mg | 1 (4) n (%) | 1 (5) n (%) | 1 (6) n (%) | 1 (6) n (%) | 1 (6) n (%) | 1 (4) n (%) | 2 n (%) | 1 (6) n (%) | 1 (6) n (%) | 2 (8) n (%) | 52.6% |
